≈ marks a conversion by molar mass, not a printed value.
What was measured:
Assay type in all cases: cell-based
[1] = test system: K. pneumoniae 848844 producing SHV-11 and KPC-2; test: Broth microdilution MIC in CAMHB; conditions: Klebsiella pneumoniae, read-out: Minimum Inhibitory Concentration, K. pneumoniae 848844
Outline: (§1)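 MIC, read by eye, is the lowest compound concentration giving no bacterial growth after 16-20 h at 37° C. Test compounds are serially diluted 2-fold in CAMHB and seeded with 2-8×10^5 CFU/mL of bacteria taken from a 3-5 h shaking culture, following CLSI methods.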

[2] = test system: E. coli AG100A; test: Broth microdilution MIC in CAMHB; conditions: Escherichia coli, read-out: Minimum Inhibitory Concentration, E. coli AG100A
Outline: as §1

[3] = test system: P. aeruginosa (ΔmexAB-oprM); test: Broth microdilution MIC in CAMHB; conditions: Pseudomonas aeruginosa, read-out: Minimum Inhibitory Concentration, P. aeruginosa ΔmexAB-OprM
Outline: as §1

[4] = test system: E. coli ATCC 25922; test: Broth microdilution MIC in CAMHB; conditions: Escherichia coli, ATCC25922; E. coli ATCC 25922; MHB; read-out: Minimum Inhibitory Concentration, E. coli 25922
Outline: as §1

[5] = test system: E. coli D22; test: Broth microdilution MIC in CAMHB; conditions: Escherichia coli; E. coli D22 (hyper-permeable); MHB; read-out: Minimum Inhibitory Concentration, E. coli D22
Outline: as §1

[6] = test system: E. coli AG100; test: Broth microdilution MIC in CAMHB; conditions: Escherichia coli; E. coli AG100 (wild-type parent); MHB; read-out: Minimum Inhibitory Concentration, E. coli AG100
Outline: as §1

[7] = test system: K. pneumoniae SI-117 producing VIM-1; test: Broth microdilution MIC in CAMHB; conditions: Klebsiella pneumoniae, read-out: Minimum Inhibitory Concentration, K. pneumoniae SI-117
Outline: as §1

[8] = test system: P. aeruginosa ATCC 35151; test: Broth microdilution MIC in CAMHB; conditions: Pseudomonas aeruginosa, ATCC35151; MHB; hyper-permeable strain; read-out: Minimum Inhibitory Concentration, P. aeruginosa ATCC 35151
Outline: as §1

[9] = test system: E. coli 901C; test: Broth microdilution MIC in CAMHB; conditions: Escherichia coli; E. coli 901C (hyper-permeable); MHB; read-out: Minimum Inhibitory Concentration, E. coli 901C
Outline: as §1

[10] = test system: K. pneumoniae UMM producing SHV-5 and KPC-2; test: Broth microdilution MIC in CAMHB; conditions: Klebsiella pneumoniae, read-out: Minimum Inhibitory Concentration, K. pneumoniae UMM
Outline: as §1

[11] = test system: P. aeruginosa ATCC 27853; test: Broth microdilution MIC in CAMHB; conditions: Pseudomonas aeruginosa, ATCC27853; MHB; read-out: Minimum Inhibitory Concentration, P. aeruginosa ATCC 27853
Outline: as §1

[12] = test system: A. baumannii ATCC 19606; test: Broth microdilution MIC in CAMHB; conditions: Acinetobacter baumannii, ATCC19606; MHB; read-out: Minimum Inhibitory Concentration, A. baumannii ATCC 19606
Outline: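 Lowest compound concentration with no visible growth after 16-20 h at 37 °C defines MIC. Plates of 2-fold serial dilutions in cation-adjusted Mueller Hinton broth received 2-8×10^5 CFU/mL of exponentially grown cells, per CLSI methods; panel spans reference, hyper-permeable and efflux-pump-deleted strains.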

[13] = test system: N. gonorrhoeae WHO Q; test: Liquid broth MIC in Fastidious broth; conditions: Neisseria gonorrhoeae, read-out: Minimum Inhibitory Concentration, N. gonorrhoeae WHO Q
Outline: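 Strains bearing mosaic PBP2 grown 24 h on chocolate agar (36° C, 5% CO2), suspended in saline and added to 2-fold compound dilutions in Fastidious broth at 5×10^5 CFU/mL. After ~24 hours at 36° C with 5% CO2, MIC taken visually as lowest well with <10% growth relative to full growth.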

| Structure (SMILES) | MIC [1] | MIC [2] | MIC [3] | MIC [4] | MIC [5] | MIC [6] | MIC [7] | MIC [8] | MIC [9] | MIC [10] | MIC [11] | MIC [12] | MIC [13] |
| --- | --- | --- | --- | --- | --- | --- | --- | --- | --- | --- | --- | --- | --- |
| CCN1CCN(C(=O)NC(C(=O)N[C@H]2Cc3cccc(C(=O)O)c3OB2O)c2cccc(NC(=O)c3ccc(O)c(O)c3Cl)c2)C(=O)C1=O (stereo partly drawn) [Example 73, (3R)-3-(2-(3-(2-chloro-3,4-dihydroxybenzamido)phenyl)-2-(4-ethyl-2,3-dioxopiperazine-1-carboxamido)acetamido)-2-hydroxy-3,4-dihydro-2H-benzo[e][1,2]oxaborinine-8-carboxylic acid] | 8 to 16 µg/mL (≈ 11.5 to 23.1 µM) | 2 to 4 µg/mL (≈ 2.88 to 5.76 µM) | 0.5 to 1 µg/mL (≈ 0.721 to 1.44 µM) | 2 to 4 µg/mL (≈ 2.88 to 5.76 µM) | 2 to 4 µg/mL (≈ 2.88 to 5.76 µM) | 2 to 4 µg/mL (≈ 2.88 to 5.76 µM) | 8 to 16 µg/mL (≈ 11.5 to 23.1 µM) | 0.5 to 1 µg/mL (≈ 0.721 to 1.44 µM) | < 0.25 µg/mL | 0.5 to 1 µg/mL (≈ 0.721 to 1.44 µM) | 2 to 4 µg/mL (≈ 2.88 to 5.76 µM) | 0.5 to 1 µg/mL (≈ 0.721 to 1.44 µM) | > 64 µg/mL |
| CCN1CCN(C(=O)NC(C(=O)N[C@H]2Cc3cccc(C(=O)O)c3OB2O)c2ccc(O)c(NC(=O)c3ccc(O)c(O)c3Cl)c2)C(=O)C1=O (stereo partly drawn) [Example 74, (3R)-3-(2-(3-(2-chloro-3,4-dihydroxybenzamido)-4-hydroxyphenyl)-2-(4-ethyl-2,3-dioxopiperazine-1-carboxamido)acetamido)-2-hydroxy-3,4-dihydro-2H-benzo[e][1,2]oxaborinine-8-carboxylic acid] | > 128 µg/mL | 8 to 16 µg/mL (≈ 11.3 to 22.5 µM) | 0.5 to 1 µg/mL (≈ 0.704 to 1.41 µM) | > 128 µg/mL | 2 to 4 µg/mL (≈ 2.82 to 5.63 µM) | 8 to 16 µg/mL (≈ 11.3 to 22.5 µM) | > 128 µg/mL | 0.5 to 1 µg/mL (≈ 0.704 to 1.41 µM) | < 0.25 µg/mL | > 128 µg/mL | 8 to 16 µg/mL (≈ 11.3 to 22.5 µM) | > 128 µg/mL | > 64 µg/mL |
| CCN1CCN(C(=O)NC(C(=O)N[C@H]2Cc3cccc(C(=O)O)c3OB2O)c2cccc([N+](=O)[O-])c2)C(=O)C1=O (stereo partly drawn) [Example 75, (3R)-3-(2-(4-ethyl-2,3-dioxopiperazine-1-carboxamido)-2-(3-nitrophenyl)acetamido)-2-hydroxy-3,4-dihydro-2H-benzo[e][1,2]oxaborinine-8-carboxylic acid] | > 128 µg/mL | 8 to 16 µg/mL (≈ 14.5 to 28.9 µM) | 32 to 64 µg/mL (≈ 57.8 to 116 µM) | > 128 µg/mL | 8 to 16 µg/mL (≈ 14.5 to 28.9 µM) | > 128 µg/mL | > 128 µg/mL | 8 to 16 µg/mL (≈ 14.5 to 28.9 µM) | 0.5 to 1 µg/mL (≈ 0.904 to 1.81 µM) | > 128 µg/mL | > 128 µg/mL | > 128 µg/mL | 16 to 32 µg/mL (≈ 28.9 to 57.8 µM) |
| CCN1CCN(C(=O)NC(C(=O)N[C@H]2Cc3cccc(C(=O)O)c3OB2O)c2cccc(NS(C)(=O)=O)c2)C(=O)C1=O (stereo partly drawn) [Example 76, (3R)-3-(2-(4-ethyl-2,3-dioxopiperazine-1-carboxamido)-2-(3-(methylsulfonamido)phenyl)acetamido)-2-hydroxy-3,4-dihydro-2H-benzo[e][1,2]oxaborinine-8-carboxylic acid] | > 128 µg/mL | 2 to 4 µg/mL (≈ 3.33 to 6.65 µM) | 8 to 16 µg/mL (≈ 13.3 to 26.6 µM) | 32 to 64 µg/mL (≈ 53.2 to 106 µM) | 2 to 4 µg/mL (≈ 3.33 to 6.65 µM) | 8 to 16 µg/mL (≈ 13.3 to 26.6 µM) | > 128 µg/mL | 2 to 4 µg/mL (≈ 3.33 to 6.65 µM) | < 0.25 µg/mL | 32 to 64 µg/mL (≈ 53.2 to 106 µM) | > 128 µg/mL | > 128 µg/mL | > 64 µg/mL |
| CCN1CCN(C(=O)NC(C(=O)N[C@H]2Cc3cccc(C(=O)O)c3OB2O)c2cc(O)ccc2O)C(=O)C1=O (stereo partly drawn) [Example 77, (3R)-3-(2-(2,5-dihydroxyphenyl)-2-(4-ethyl-2,3-dioxopiperazine-1-carboxamido)acetamido)-2-hydroxy-3,4-dihydro-2H-benzo[e][1,2]oxaborinine-8-carboxylic acid] | > 128 µg/mL | 32 to 64 µg/mL (≈ 59.2 to 118 µM) | > 128 µg/mL | > 128 µg/mL | 8 to 16 µg/mL (≈ 14.8 to 29.6 µM) | > 128 µg/mL | > 128 µg/mL | 8 to 16 µg/mL (≈ 14.8 to 29.6 µM) | 8 to 16 µg/mL (≈ 14.8 to 29.6 µM) | > 128 µg/mL | > 128 µg/mL | > 128 µg/mL | > 64 µg/mL |
| N=C(N)NCCN1CCN(C(=O)NC(C(=O)N[C@H]2Cc3ccc(F)c(C(=O)O)c3OB2O)c2ccc(C(=O)O)c(F)c2)C(=O)C1=O (stereo partly drawn) [Example 78, (3R)-3-(2-(4-carboxy-3-fluorophenyl)-2-(4-(2-guanidinoethyl)-2,3-dioxopiperazine-1-carboxamido)acetamido)-7-fluoro-2-hydroxy-3,4-dihydro-2H-benzo[e][1,2]oxaborinine-8-carboxylic acid] | > 128 µg/mL | > 128 µg/mL | 32 to 64 µg/mL (≈ 49.6 to 99.2 µM) | > 128 µg/mL | 8 to 16 µg/mL (≈ 12.4 to 24.8 µM) | > 128 µg/mL | > 128 µg/mL | 0.5 to 1 µg/mL (≈ 0.775 to 1.55 µM) | 2 to 4 µg/mL (≈ 3.1 to 6.2 µM) | > 128 µg/mL | 32 to 64 µg/mL (≈ 49.6 to 99.2 µM) | > 128 µg/mL | > 64 µg/mL |
| NCCN1CCN(C(=O)NC(C(=O)N[C@H]2Cc3cccc(C(=O)O)c3OB2O)c2cc(Cl)c(O)cc2F)C(=O)C1=O (stereo partly drawn) [Example 87, (3R)-3-(2-(4-(2-aminoethyl)-2,3-dioxopiperazine-1-carboxamido)-2-(5-chloro-2-fluoro-4-hydroxyphenyl)acetamido)-2-hydroxy-3,4-dihydro-2H-benzo[e][1,2]oxaborinine-8-carboxylic acid] | 32 to 64 µg/mL (≈ 54.1 to 108 µM) | 0.5 to 1 µg/mL (≈ 0.845 to 1.69 µM) | 8 to 16 µg/mL (≈ 13.5 to 27 µM) | 8 to 16 µg/mL (≈ 13.5 to 27 µM) | 2 to 4 µg/mL (≈ 3.38 to 6.76 µM) | 8 to 16 µg/mL (≈ 13.5 to 27 µM) | 32 to 64 µg/mL (≈ 54.1 to 108 µM) | 0.5 to 1 µg/mL (≈ 0.845 to 1.69 µM) | < 0.25 µg/mL | 8 to 16 µg/mL (≈ 13.5 to 27 µM) | > 128 µg/mL | > 128 µg/mL | > 64 µg/mL |
| NCCN1CCN(C(=O)N[C@@H](C(=O)N[C@H]2Cc3cccc(C(=O)O)c3OB2O)c2cc(Cl)c(O)cc2Cl)C(=O)C1=O [Example 90, (R)-3-((R)-2-(4-(2-aminoethyl)-2,3-dioxopiperazine-1-carboxamido)-2-(2,5-dichloro-4-hydroxyphenyl)acetamido)-2-hydroxy-3,4-dihydro-2H-benzo[e][1,2]oxaborinine-8-carboxylic acid] | > 128 µg/mL | 32 to 64 µg/mL (≈ 52.6 to 105 µM) | > 128 µg/mL | > 128 µg/mL | 8 to 16 µg/mL (≈ 13.2 to 26.3 µM) | 32 to 64 µg/mL (≈ 52.6 to 105 µM) | > 128 µg/mL | 0.5 to 1 µg/mL (≈ 0.822 to 1.64 µM) | 0.5 to 1 µg/mL (≈ 0.822 to 1.64 µM) | > 128 µg/mL | > 128 µg/mL | > 128 µg/mL | > 64 µg/mL |
